Legend:
bedstraw = assay: Test B pre/postemergence bedstraw; format: in vivo, Galium aparine
Outline: (§1)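 Response is a visual 0-to-10 score relative to untreated plants, where 0 means no effect and 10 means complete control, taken twelve to sixteen days after application. Treatments went onto soil at planting and onto foliage of 1- to 4-leaf plants, using a surfactant-containing non-phytotoxic solvent.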

surinam grass = assay: Test B pre/postemergence surinam grass; format: in vivo, Brachiaria decumbens
Outline: as §1

cocklebur = assay: Test B pre/postemergence cocklebur; format: in vivo, Xanthium strumarium; conditions: for Cocklebur plant response rating: scale of 0 to 10 where 0 is no effect and 10 is complete control
Outline: as §1

corn = assay: Test B pre/postemergence corn; format: in vivo, Zea mays; conditions: for Corn plant response rating: scale of 0 to 10 where 0 is no effect and 10 is complete control
Outline: as §1

crabgrass = assay: Test B pre/postemergence crabgrass; format: in vivo, Digitaria sanguinalis; conditions: for Crabgrass plant response rating: scale of 0 to 10 where 0 is no effect and 10 is complete control
Outline: as §1

giant foxtail = assay: Test B pre/postemergence giant foxtail; format: in vivo, Setaria faberii; conditions: for Giant foxtail plant response rating: scale of 0 to 10 where 0 is no effect and 10 is complete control
Outline: as §1

morningglory = assay: Test B pre/postemergence morningglory; format: in vivo, Ipomoea hederacea; conditions: for Morningglory plant response rating: scale of 0 to 10 where 0 is no effect and 10 is complete control
Outline: as §1

pigweed = assay: Test B pre/postemergence pigweed; format: in vivo, Amaranthus retroflexus; conditions: for Redroot pigweed plant response rating: scale of 0 to 10 where 0 is no effect and 10 is complete control
Outline: as §1

rape = assay: Test B pre/postemergence rape; format: in vivo, Brassica napus; conditions: for Rape plant response rating: scale of 0 to 10 where 0 is no effect and 10 is complete control
Outline: as §1

soybean = assay: Test B pre/postemergence soybean; format: in vivo, Glycine max; conditions: for Soybean plant response rating: scale of 0 to 10 where 0 is no effect and 10 is complete control
Outline: as §1

sugar beet = assay: Test B pre/postemergence sugar beet; format: in vivo, Beta vulgaris; conditions: for Sugarbeets plant response rating: scale of 0 to 10 where 0 is no effect and 10 is complete control
Outline: as §1

velvetleaf = assay: Test B pre/postemergence velvetleaf; format: in vivo, Abutilon theophrasti; conditions: for Velvetleaf plant response rating: scale of 0 to 10 where 0 is no effect and 10 is complete control
Outline: as §1

wheat = assay: Test B pre/postemergence wheat; format: in vivo, Triticum aestivum; conditions: for Wheat plant response rating: scale of 0 to 10 where 0 is no effect and 10 is complete control
Outline: as §1

purple nutsedge = assay: Test B pre/postemergence purple nutsedge; format: in vivo, Cyperus rotundus; conditions: for Nutsedge plant response rating: scale of 0 to 10 where 0 is no effect and 10 is complete control
Outline: as §1

duck salad = assay: Test B flood test duck salad; format: in vivo, Heteranthera limosa
Outline: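 Each value is a visual injury score relative to controls, with 10 meaning complete control and 0 no effect. Evaluation took place twelve to sixteen days after the 2-leaf-stage plants were treated and kept in the greenhouse.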

[1] = Postemergence, Rate 125 g/ha, scale 0 to 10, 0 is no effect, 10 is complete control
[2] = Preemergence, Rate 62 g/ha, scale 0 to 10 (0 no effect, 10 complete control)
[3] = Rate 62 g/ha, Postemergence, scale of 0 to 10 where 0 is no effect and 10 is complete control
[4] = Rate 250 g/ha, Postemergence, scale of 0 to 10 where 0 is no effect and 10 is complete control
[5] = Rate 500 g/ha, Postemergence, scale 0 to 10, 0 no effect, 10 complete control

## Cc1c(-n2c(=O)on(C(=O)N(c3ccccc3)C(C)C)c2=O)ccc2ccccc12 [Compound 344]
bedstraw; [1]
  Plant response rating, Bedstraw: 0
bedstraw; [2]
  Plant response rating, Bedstraw: 0
bedstraw; Preemergence, Rate 125 g/ha
  Bedstraw plant response rating (0 to 10 scale): 0
bedstraw; [3]
  Bedstraw plant response rating: 0
bedstraw; [4]
  Plant response rating, Bedstraw: 0
bedstraw; [5]
  Plant response rating, Bedstraw: 0
Surinam grass; [1]
  Plant response rating, B. signalgrass: 0
Surinam grass; [2]
  Plant response rating, B. signalgrass: 0
Surinam grass; Preemergence, Rate 125 g/ha
  B. signalgrass plant response rating (0 to 10 scale, 0 is no effect, 10 is complete control): 0
Surinam grass; Preemergence, Rate 250 g/ha, scale of 0 to 10 where 0 is no effect and 10 is complete control
  B. signalgrass plant response rating: 0
Surinam grass; Preemergence, Rate 500 g/ha, scale of 0 to 10 where 0 is no effect and 10 is complete control
  B. signalgrass plant response rating: 0
Surinam grass; [3]
  B. signalgrass plant response rating: 0
Surinam grass; [4]
  Plant response rating, B. signalgrass: 0
Surinam grass; [5]
  Plant response rating, B. signalgrass: 0
cocklebur; [1]
  Plant response rating, Cocklebur: 0
cocklebur; [2]
  Plant response rating, Cocklebur: 0
cocklebur; Preemergence, Rate 125 g/ha
  Cocklebur plant response rating (0 to 10 scale): 0
cocklebur; Preemergence, Rate 250 g/ha
  Cocklebur plant response rating: 0
cocklebur; Preemergence, Rate 500 g/ha
  Cocklebur plant response rating: 0
cocklebur; Rate 62 g/ha, Postemergence
  Cocklebur plant response rating: 0
cocklebur; [5]
  Plant response rating, Cocklebur: 0
corn; [1]
  Plant response rating, Corn: 0
corn; [2]
  Plant response rating, Corn: 0
corn; Preemergence, Rate 125 g/ha
  Corn plant response rating (0 to 10 scale): 0
corn; Preemergence, Rate 250 g/ha
  Corn plant response rating: 0
corn; Preemergence, Rate 500 g/ha
  Corn plant response rating: 0
corn; Rate 62 g/ha, Postemergence
  Corn plant response rating: 0
corn; [5]
  Plant response rating, Corn: 0
crabgrass; [1]
  Plant response rating, Crabgrass: 0
crabgrass; [2]
  Plant response rating, Crabgrass: 0
crabgrass; Preemergence, Rate 125 g/ha
  Crabgrass plant response rating (0 to 10 scale): 0
crabgrass; Preemergence, Rate 250 g/ha
  Crabgrass plant response rating: 0
crabgrass; Preemergence, Rate 500 g/ha
  Crabgrass plant response rating: 1
crabgrass; Rate 62 g/ha, Postemergence
  Crabgrass plant response rating: 0
crabgrass; [5]
  Plant response rating, Crabgrass: 0
Giant foxtail; [1]
  Plant response rating, Giant foxtail: 0
Giant foxtail; [2]
  Plant response rating, Giant foxtail: 0
Giant foxtail; Preemergence, Rate 125 g/ha
  Giant foxtail plant response rating (0 to 10 scale): 2
Giant foxtail; Preemergence, Rate 250 g/ha
  Giant foxtail plant response rating: 3
Giant foxtail; Preemergence, Rate 500 g/ha
  Giant foxtail plant response rating: 8
Giant foxtail; Rate 62 g/ha, Postemergence
  Giant foxtail plant response rating: 0
Giant foxtail; [5]
  Plant response rating, Giant foxtail: 0
morningglory; [1]
  Plant response rating, Morningglory: 0
morningglory; [2]
  Plant response rating, Morningglory: 0
morningglory; Preemergence, Rate 125 g/ha
  Morningglory plant response rating (0 to 10 scale): 0
morningglory; Preemergence, Rate 250 g/ha
  Morningglory plant response rating: 0
morningglory; Preemergence, Rate 500 g/ha
  Morningglory plant response rating: 0
morningglory; Rate 62 g/ha, Postemergence
  Morningglory plant response rating: 0
morningglory; [5]
  Plant response rating, Morningglory: 0
pigweed; [1]
  Plant response rating, Redroot pigweed: 0
pigweed; [2]
  Plant response rating, Redroot pigweed: 0
pigweed; Preemergence, Rate 125 g/ha
  Redroot pigweed plant response rating (0 to 10 scale): 0
pigweed; Preemergence, Rate 250 g/ha
  Redroot pigweed plant response rating: 0
pigweed; Preemergence, Rate 500 g/ha
  Redroot pigweed plant response rating: 0
pigweed; Rate 62 g/ha, Postemergence
  Redroot pigweed plant response rating: 0
pigweed; [5]
  Plant response rating, Redroot pigweed: 2
rape; [1]
  Plant response rating, Rape: 0
rape; [2]
  Plant response rating, Rape: 0
rape; Preemergence, Rate 125 g/ha
  Rape plant response rating (0 to 10 scale): 0
rape; Preemergence, Rate 250 g/ha
  Rape plant response rating: 0
rape; Rate 62 g/ha, Postemergence
  Rape plant response rating: 0
rape; [5]
  Plant response rating, Rape: 0
soybean; [1]
  Plant response rating, Soybean: 2
soybean; [2]
  Plant response rating, Soybean: 0
soybean; Preemergence, Rate 125 g/ha
  Soybean plant response rating (0 to 10 scale): 0
soybean; Preemergence, Rate 250 g/ha
  Soybean plant response rating: 0
soybean; Preemergence, Rate 500 g/ha
  Soybean plant response rating: 0
soybean; Rate 62 g/ha, Postemergence
  Soybean plant response rating: 2
soybean; [5]
  Plant response rating, Soybean: 2
Sugar beet; [1]
  Plant response rating, Sugarbeets: 0
Sugar beet; [2]
  Plant response rating, Sugarbeets: 0
Sugar beet; Preemergence, Rate 125 g/ha
  Sugarbeets plant response rating (0 to 10 scale): 0
Sugar beet; Preemergence, Rate 250 g/ha
  Sugarbeets plant response rating: 0
Sugar beet; Preemergence, Rate 500 g/ha
  Sugarbeets plant response rating: 0
Sugar beet; Rate 62 g/ha, Postemergence
  Sugarbeets plant response rating: 0
Sugar beet; [5]
  Plant response rating, Sugarbeets: 0
velvetleaf; [1]
  Plant response rating, Velvetleaf: 0
velvetleaf; [2]
  Plant response rating, Velvetleaf: 0
velvetleaf; Preemergence, Rate 125 g/ha
  Velvetleaf plant response rating (0 to 10 scale): 0
velvetleaf; Preemergence, Rate 250 g/ha
  Velvetleaf plant response rating: 0
velvetleaf; Preemergence, Rate 500 g/ha
  Velvetleaf plant response rating: 0
velvetleaf; Rate 62 g/ha, Postemergence
  Velvetleaf plant response rating: 0
velvetleaf; [5]
  Plant response rating, Velvetleaf: 0
wheat; [1]
  Plant response rating, Wheat: 0
wheat; [2]
  Plant response rating, Wheat: 0
wheat; Preemergence, Rate 125 g/ha
  Wheat plant response rating (0 to 10 scale): 0
wheat; Preemergence, Rate 250 g/ha
  Wheat plant response rating: 0
wheat; Preemergence, Rate 500 g/ha
  Wheat plant response rating: 0
wheat; Rate 62 g/ha, Postemergence
  Wheat plant response rating: 0
wheat; [5]
  Plant response rating, Wheat: 0
Purple nutsedge; [1]
  Plant response rating, Nutsedge: 0
Purple nutsedge; [2]
  Plant response rating, Nutsedge: 0
Purple nutsedge; Preemergence, Rate 125 g/ha
  Nutsedge plant response rating (0 to 10 scale): 0
Purple nutsedge; Preemergence, Rate 250 g/ha
  Nutsedge plant response rating: 0
Purple nutsedge; Preemergence, Rate 500 g/ha
  Nutsedge plant response rating: 0
Purple nutsedge; Rate 62 g/ha, Postemergence
  Nutsedge plant response rating: 0
Purple nutsedge; [5]
  Plant response rating, Nutsedge: 0
Duck salad; Postemergence (flood test), Rate 125 g/ha, scale 0 to 10, 0 is no effect, 10 is complete control
  Plant response rating, Ducksalad: 0
Duck salad; Rate 62 g/ha, Postemergence (flood test species), scale of 0 to 10 where 0 is no effect and 10 is complete control
  Ducksalad plant response rating: 0
Duck salad; Rate 500 g/ha, listed under Postemergence (flood test species), scale 0 to 10, 0 no effect, 10 complete control
  Plant response rating, Ducksalad: 0

Reference: patent publication US6737383B1, “Herbicidal oxadiazolidines” (priority 1999, dated 2004)
